Values quoted from earlier work, collected in patent publication US8420699B1, “Composition and methods of treatment using deionized and ozonated solution” (priority 2002, dated 2013).

For `O=[O+][O-]` [ozone], the half-life of ozone (at 68° F.) is given as 45 min and the “concentrated effectiveness relative to initial value” (in two hours after generation) is given as 16 % of its initial value.
